Laboratory results taken from patent publication US20240216362A1, “BENZOTHIAZOLE AND QUINOLINE DERIVATIVES FOR USE IN TREATING KAWASAKI DISEASE” (Shanghai Yao Yuan Biotechnology Co., Ltd., priority 2021, published 2024).
Where a name gives a salt, the structure may show the parent alone.

Columns and labels:
[1] = target: hALPK1-V1092A (transiently transfected HEK293 cells) (Homo sapiens (Human), UniProt Q96QP1, V1092A); test: Inhibition of IL-8 secretion in cells expressing V1092A ALPK1 mutant; type: cell-based; conditions: 24 hours, relative to wild-type HEK293 cells
Chain of hALPK1-V1092A (transiently transfected HEK293 cells) (Q96QP1 whole entry V1092A): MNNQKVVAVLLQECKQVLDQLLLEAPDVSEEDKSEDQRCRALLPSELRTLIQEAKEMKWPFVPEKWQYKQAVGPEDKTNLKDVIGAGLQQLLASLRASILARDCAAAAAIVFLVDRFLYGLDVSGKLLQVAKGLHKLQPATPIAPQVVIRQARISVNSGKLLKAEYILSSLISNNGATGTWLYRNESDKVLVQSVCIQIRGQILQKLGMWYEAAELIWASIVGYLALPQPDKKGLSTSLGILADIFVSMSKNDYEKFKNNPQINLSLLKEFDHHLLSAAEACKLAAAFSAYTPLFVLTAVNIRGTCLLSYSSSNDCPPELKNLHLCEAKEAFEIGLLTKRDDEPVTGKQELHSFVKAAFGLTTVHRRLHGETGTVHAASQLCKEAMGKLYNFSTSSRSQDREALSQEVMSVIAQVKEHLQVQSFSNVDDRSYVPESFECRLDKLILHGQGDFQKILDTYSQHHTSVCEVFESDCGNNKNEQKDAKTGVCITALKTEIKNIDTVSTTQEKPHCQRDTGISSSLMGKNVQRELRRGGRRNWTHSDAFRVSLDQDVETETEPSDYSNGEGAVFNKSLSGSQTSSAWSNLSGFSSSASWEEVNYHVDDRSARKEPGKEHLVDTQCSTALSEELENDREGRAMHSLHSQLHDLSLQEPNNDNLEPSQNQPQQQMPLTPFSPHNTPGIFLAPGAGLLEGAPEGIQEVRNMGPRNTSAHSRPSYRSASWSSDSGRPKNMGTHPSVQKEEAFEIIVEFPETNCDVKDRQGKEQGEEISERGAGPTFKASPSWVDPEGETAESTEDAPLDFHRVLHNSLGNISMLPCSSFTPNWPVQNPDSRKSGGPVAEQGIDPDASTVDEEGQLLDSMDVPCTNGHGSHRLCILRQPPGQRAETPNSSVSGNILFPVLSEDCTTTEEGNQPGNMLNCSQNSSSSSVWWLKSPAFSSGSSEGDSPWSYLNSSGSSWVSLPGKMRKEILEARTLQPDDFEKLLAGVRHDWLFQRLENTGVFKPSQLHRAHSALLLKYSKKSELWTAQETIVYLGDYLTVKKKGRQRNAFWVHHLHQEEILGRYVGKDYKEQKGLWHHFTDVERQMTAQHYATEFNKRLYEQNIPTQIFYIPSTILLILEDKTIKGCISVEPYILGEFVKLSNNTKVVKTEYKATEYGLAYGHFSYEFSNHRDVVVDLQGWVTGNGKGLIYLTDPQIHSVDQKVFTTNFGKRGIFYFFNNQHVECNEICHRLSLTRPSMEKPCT
Method: (§1) HEK293 cells were cultured as described above prior to transient transfection with either empty vector or an expression vector encoding (i) human ALPK1 (hALPK1), (ii) hALPK1 with the T237M activating mutation (hALPK1-T237M) (iii) hALPK1 with the V1092A activating mutation (hALPK1-V1092A), or (iv) a kinase dead ALPK1 mutant (hALPK1-T237M-D1194S). Transfection was performed according to manufacturer's protocols (Lipofectamine™ 3000, ThermoFisher). Transfected cells were selected, seeded onto 96-well plates and treated with serial dilutions of the test compounds for 6.5 hr. Following treatment, cell viability was determined using a luminescent cell viability assay (Cell Counting-Lite Assay or “CCL Assay” from Vazyme Biotech Co., Ltd.) and cell free supernatants were collected and analyzed for IL-8 protein by IL-8 ELISA as described above. […] As shown in the figure, very little IL-8 was detectable in cells transfected with any of the empty vector, hALPK1, or the kinase dead hALPK1 mutant. In contrast, both of the activating mutations in hALPK1 induced significant IL-8 secretion.
For the V1092A mutant study shown in Table 4, HEK293 cells were transiently transfected with hALPK1-V1092A or hALPK1 (wildtype) expression vectors and then treated with test compounds for 24 hours. Fresh medium and compound were added at 18 hours. Cell viability and IL-8 secretion were determined 6 hours after the second addition of compound, using the CCL assay and IL-8 ELISA as described above.

[2] = target: T237M hALPK1 mutant (HEK293 A2 cells) (Homo sapiens (Human), UniProt Q96QP1, T237M); test: Inhibition of IL-8 secretion in cells expressing T237M ALPK1 mutant; type: cell-based; conditions: 40 hours, relative to wild-type HEK293 cells
Chain of T237M hALPK1 mutant (HEK293 A2 cells) (Q96QP1 whole entry T237M): as the sequence (Q96QP1 whole entry V1092A) above, with T237M, A1092V counted along it
Method: as §1
Next, we tested a representative set of compounds for inhibition of IL-8 secretion in cells expressing each of the activating ALPK1 mutants. T237M and V1092A. […] For the T237M mutant study, we produced an HEK293 cell line (“A2”) stably expressing the T237M hALPK1 mutant. A2 cells were cultured in the presence of test compound (6 uM) for 40 hours total. Fresh medium and compound were added at 24 hours. Cell viability and IL-8 secretion were determined 16 hours after the second addition of compound, using the CCL assay and IL-8 ELISA as described above.

[3] = system: IL1β mRNA induced by ALPK1 activation in THP-1-derived macrophages; test: PMA-differentiated THP-1 cell based assay (IL1β mRNA); conditions: Homo sapiens; PMA-differentiated THP-1 cells, ALPK1 agonist stimulation 4 h; read-out: IC50 for inhibition of IL1β mRNA
Method: Peripheral blood mononuclear cells (PBMCs) from Kawasaki patients show activation of ALPK1-TIFA-IL10μ pathway. We evaluated the ability of ALPK1 inhibitors to suppress IL1β levels following ALPK1 activation in THP-1-derived macrophage cells in which the ALPK1-TIFA-IL1P pathway is activated by an ALPK1 agonist, D-glycero-D-manno-6-fluoro-heptose-1β-S-A DP.
THP-1 cells were cultured in RPMI 1640 containing 10% heat inactivated FBS, penicillin (100 units/ml) and streptomycin (100 μg/ml), and maintained in a humidified incubator with 95% atmospheric air and 5% CO2. Prior to the experiment, THP-1 cells were seeded into 24-well flat-bottom plate at a cell density of […]. Phorbol myristate acetate (PMA; 50 ng/ml) was used to treat THP-1 cells for 48 h, and then THP-1-derived macrophages were obtained. Following treatment THP-1 cells were pretreated with serially diluted compounds for 2 hours and then stimulated with D-glycero-D-manno-6-fluoro-heptose-1β-S-ADP for 4 h. […] The mRNA expression levels IL1β were detected by SYBR green gene expression assays. […] Relative expression was calculated by comparing to vehicle control and the values were plotted as fold induction. All activity results were expressed as the mean of triplicate determinations. IC50 was determined from dose response curve using Prism Software, version 6.00 from GraphPad Software.

[4] = system: ALPK1-dependent innate immunity gene expression; test: Inhibition of ALPK1 in coronary artery, aorta and heart muscle (innate immunity gene mRNA); type: in vivo, Sprague-Dawley (SD) rats; conditions: SD rats, 40 mpk oral, 2 h before ALPK1 agonist ip, tissue 3 h after agonist, compared with vehicle group
Excerpt: To examine if ALPK1 inhibitors can suppress innate immunity genes activated upon ALPK1 activation, SD rats were orally administered compound T007 and gene expression of innate immunity genes was activated by intraperitoneal administration of the ALPK1 agonist, D-glycero-D-manno-6-fluoro-heptose-1β-S-ADP. The coronary artery, aorta and heart muscle tissues were examined for inhibition of ALPK1 inhibitors on innate immunity gene expression.
Twenty male Sprague-Dawley (SD) rats were randomly divided into four groups. A first control group (“normal”) was administered vehicle (0.5% MC) orally, followed 2 hours later with PBS administered by intraperitoneal injection (ip). A second control group (“vehicle”) was administered vehicle (0.5% MC) orally, followed 2 hours later by ip administration of the ALPK1 agonist, D-glycero-D-manno-6-fluoro-heptosc-1β-S-ADP (50 ppk). Treatment groups were administered ALPK1 inhibitors (40 mpk) orally, followed 2 hours later by ip administration of the ALPK1 agonist. The coronary artery, cardiac muscle and aorta from each group were collected 3 hours after administration of the ALPK1 agonist. RNA was isolated and samples were analyzed by RT-PCR for expression of MCP-1 (CCL-2), CCL-7, CXCL-1, CXCL-11, CXCL-10, IL-1β, CCL-5, TNF-α, and IL-6 mRNA. Briefly, total RNA was extracted following the protocol of the Rneasy Mini Kit (QIAGEN, Germany). Messenger RNA was reverse transcribed to cDNA using HiScript Q RT SuperMix for qPCR Kit (Vazyme, Nanjing, China). Quantitative PCR was conducted using AceQ qPCR SYBR Green Master Mix Kit (Vazyme, Nanjing, China) on the QuantStudio 5 applied biosystems (Thermo scientific, USA). Relative mRNA levels were calculated using the 2−ΔΔCT method, and HPRT was used as a reference for gene expression normalization. Data were presented as the gene fold change against their respective expression in the control arm.

[5] = system: ALPK1-dependent gene expression in PBMC; test: Inhibition of ALPK1 in PBMC cells (gene mRNA); type: in vivo, Sprague-Dawley (SD) rats; conditions: SD rats, 10 mpk oral, 2 h before ALPK1 agonist ip, blood 3 h after agonist, compared with vehicle group
Excerpt: We examined whether ALPK1 inhibitors can suppress ALPK1-dependent activation of a set of such genes in rats. Animals were orally administered compound T007 and ALPK1-dependent gene expression was induced by intraperitoneal administration of the ALPK1 agonist, D-glycero-D-manno-6-fluoro-heptose-lo-S-ADP. PBMCs were collected and gene expression analyzed, as described in more detail below.
Thirty-six male Sprague-Dawley (SD) rats were randomly divided into six groups. A first control group (“normal”) was administered vehicle (0.5% MC) orally, followed 2 hours later with PBS administered by intraperitoneal injection (ip). A second control group (“vehicle”) was administered vehicle (0.5% MC) orally, followed 2 hours later by ip administration of the ALPK1 agonist, D-glycero-D-manno-6-fluoro-heptose-1β-S-ADP (50 ppk). Treatment groups were administered ALPK1 inhibitors (10 mpk) orally, followed 2 hours later by ip administration of the ALPK1 agonist. […] RNA was isolated and samples were analyzed by RT-PCR for gene expression. […] Quantitative PCR was conducted using AceQ qPCR SYBR Green Master Mix Kit (Vazvme, Nanjing, China) on the QuantStudio 5 applied biosystems (Thermo scientific, USA). Relative mRNA levels were calculated using the 2−ΔΔCT method, and HPRT was used as a reference for gene expression normalization. […]

ALPK1 = ALPK1 (Homo sapiens (Human), UniProt Q96QP1); test: ALPK1 in vitro kinase assay (HTRF, TIFA phosphorylation); type: biochemical; conditions: ADP-Heptose activated ALPK1, TIFA substrate
Chain of ALPK1 (Q96QP1 whole entry): as the sequence (Q96QP1 whole entry V1092A) above, with A1092V counted along it
Method: ALPK1 kinase activity was measured in an in vitro assay using ADP-Heptose as the ALPK1 ligand and activator of its kinase activity and TIFA protein as the ALPK1 phosphorylation substrate. Since phosphorylated TIFA proteins oligomerize, Homogeneous Time-Resolved Fluorescence (HTRF) was used to measure protein:protein interaction between HA-tagged TIFA proteins as an indicator of TIFA phosphorylation.
In brief, dose-response studies were performed with HEK293 cells cultured in Dulbecco's Modified Eagle Medium (DMEM) supplemented 10% fetal bovine serum (FBS, Hyclone™) containing antibiotics (pen/strep, G418) in 384-well assay plates. Each well contained 0.1 mg TIFA, ALPK1 (2 nM final concentration in reaction mixture) and kinase buffer (100 mM of HEPES pH 7.4, 4 mM DTT, 40 mM MgCl2, 20 mM of β-Glycerol phosphate disodium salt, 0.4 mM of Na3VO4, 0.16 mg/mL). […]
For HTRF, samples were incubated with a Tb cryptate-labeled anti-HA antibody for capturing HA-tagged proteins according to the manufacturer's instructions (PerkinElmer™, CisBio™) and the fluorescence signal was quantified (Tecan Infinite F NANO+). HTRF signals were calculated as the HTRF ratio (ratio of fluorescence measured at 665 nm and 620 nm)×104 (thereby using the signal at 620 nm as an internal standard).
IC50 values were determined using 3- or 4-parameter logistic equation using GraphPad Prism version 6.00. […]

Row | Compound | inhibition at 6 µM [1] | inhibition at 6 µM [2] | further results
1 | COc1cccc2ccc(NC(=O)c3c(F)cc(N4CCNCC4)cc3F)nc12 [Compound Q001, 2,6-difluoro-N-(8-methoxyquinolin-2-yl)-4-(piperazin-1-yl)benzamide] | 68% | 69% | 
2 | COc1cccc2ccc(NC(=O)c3c(F)ccc(N4CCNCC4)c3F)nc12 [Compound Q005, 2,6-difluoro-N-(8-methoxyquinolin-2-yl)-3-(piperazin-1-yl)benzamide] | 52% |  | 
3 | C#Cc1cccc2sc(NC(=O)c3c(F)cc(N4CCNCC4)cc3F)nc12 [Compound T007, N-(4-ethynylbenzo[d]thiazol-2-yl)-2,6-difluoro-4-(piperazin-1-yl)benzamide] | 95% | 91% | IC50 [3]: 21 nM; mRNA expression of aorta IL-6, CXCL-1, CXCL-10, CCL-2 [4]: significantly decreased; mRNA expression of cardiac muscle TNF-α, IL-1b, IL-6, CXCL-1, CXCL-10, CXCL-11, CCL-2 and CCL-5 [4]: significantly decreased; mRNA expression of coronary artery TNF-α, CXCL-1, CCL-2 and CCL-7 [4]: significantly decreased; mRNA expression of PBMC CXCL-1 [5]: significantly decreased
4 | COc1cccc2sc(NC(=O)c3c(F)cc(N4CCNCC4)cc3F)nc12 [Compound T017, 2,6-difluoro-N-(4-methoxybenzo[d]thiazol-2-yl)-4-(piperazin-1-yl)benzamide hydrochloride] | 50% |  | 
5 | O=C(Nc1nc2c(F)cc(F)cc2s1)c1c(F)cc(N2CCNCC2)cc1F [Compound T035, N-(4,6-difluorobenzo[d]thiazol-2-yl)-2,6-difluoro-4-(piperazin-1-yl)benzamide] |  |  | IC50 (ALPK1): 1340 nM
6 | C#Cc1cccc2sc(NC(=O)c3c(Cl)cc(N4CCNCC4)cc3Cl)nc12 [Compound T048, 2,6-dichloro-N-(4-ethynylbenzo[d]thiazol-2-yl)-4-(piperazin-1-yl)benzamide] |  | 66% | 
7 | C#Cc1cccc2sc(NC(=O)c3c(C)cc(N4CCNCC4)cc3F)nc12 [Compound T050, N-(4-ethynylbenzo[d]thiazol-2-yl)-2-fluoro-6-methyl-4-(piperazin-1-yl)benzamide] |  |  | IC50 (ALPK1): 15 nM
